Measurements reported in patent US9597416B2, “Fluorescent membrane intercalating probes and methods for their use” (PHANOS TECHNOLOGIES, INC., priority 2005, dated 2017).

Assays:
[1] = Solubility in Diluent C vs ethanol control; type: physicochemical; details: 1:50 dilution of 1 mM stock, 30 min room temperature, centrifuged, % of absorbance of 100% ethanol control
Procedure: Effects of the various combinations of asymmetrical and symmetrical side chains and methine bridges on the solubility of the compounds of the present invention were examined. Solubility in a commercially available probe diluent. Diluent C, was also tested. Triplicate 1:50 dilutions of stock 1 mM probe solutions were made in either ethanol or test diluent. After 30 minutes at room temperature solutions were centrifuged at 10,000×g for 10 minutes to remove any microagregates and 100 ul aliquots were transferred to 2.0 ml of ethanol for absorbance determinations. Based on the teachings of Leung et al. and on solubility specifications found on Sigma Certificates of Analysis for the commercial diluent (diluent supernatant absorbance at 30 minutes at least 60% of ethanol supernatant absorbance after 30 minutes), a preliminary specification at least 60% of the ethanol control was set as a surrogate for solubility sufficient to achieve cell labeling with S/N ratios greater than 100 and to minimize potential problems with brightness or reproducibility of labeling. Certain example compounds were soluble after 30 minutes in Diluent C.
Diluent C is a commercially available isotonic salt-free vehicle (Sigma-Aldrich Chemical Company) that is commonly used.

[2] = Absorbance/emission spectra in ethanol; type: physicochemical; details: for Abs Max / Flourescence Ex Max / Fluorescence Em Max: 0.25 μM solutions in ethanol; for Extinction Coefficient: ethanol, approximate, maximum absorbance divided by nominal concentration
Procedure: Referring now to Tables 1 and 2, there are shown the absorbance and emission maxima of some example compounds of the present invention. Absorption and Fluorescence spectra were run using 0.25 μM solutions in ethanol on a Jasco, Inc. UV-530 UV/VIS spectrophotometer and FP 750 spectrofluorometer, respectively. Approximate extinction coefficients were estimated from the absorbance scans by dividing the maximum absorbance by the nominal concentration ([…]).

U937 cells = assay: Probe effects on cell viability and cell growth (Maximum Tolerated Concentration); type: cell-based; details: for Maximum Tolerated Concentration (MTC): cultured U937 cells, 10^7 cells/ml, labeled 5 min in Diluent C, cultured 22-24 hours
Procedure: U937 cells were stained at a concentration of 10^7 cells/ml with increasing concentrations of probe by rapidly admixing 2× cells suspended in Diluent C with 2× probe in Diluent C. After 5 minutes at room temperature, the staining was stopped by the addition of cell culture medium. Cells were then washed thoroughly and cultured under standard conditions for 22-24 hours. Cell numbers were compared to those in a control culture treated with diluent alone.
Cells labeled with both dyes were also monitored daily for changes in mean fluorescence intensity (MFI), using a FACSAria flow cytometer with 488 nm excitation for PKH26 and 405 nm excitation for F305B. […] However, initial MFI's were high enough to detect at least 4 and possibly 5 or 6 cell doublings before the fluorescence intensity distribution of labeled cells began to overlap substantially with that of unstained cells. Color overlap of F305B into filter windows used for detection of 488 nm or 633 nm excited dyes was minimal. Since 405 nm excited dyes are less commonly available than 488 nm and 633 nm excited dyes of this nature were therefore deemed useful, despite their somewhat lesser signal:noise ratio, for providing increased flexibility in choice of spectral window to be used for monitoring membrane labeled cells and their proliferation.
Cells labeled with both dyes were also monitored daily for changes in mean fluorescence intensity (MFI), using a FACSCalibur flow cytometer with 488 nm excitation for PKH26 and 633 nm excitation for F308B.
Cells labeled either with PKH26 or with F319B were also monitored daily for changes in mean fluorescence intensity (MFI), using a FACSAria flow cytometer with 488 nm excitation for PKH26 and 785 nm excitation for F319B. […] Although the cells could only be followed for 4-5 doublings when labeled with PKH26, at least 6 doublings could be monitored using F319B before the fluorescence intensity distribution of labeled cells began to overlap substantially with that of unstained cells. Color overlap of F319B was minimal in filter windows used for detection of fluorescein, phycoerthyrin (PE), allophycocyanin (APC), and PE-Texas Red, PE-Cy5 or PerCP-Cy5.5 tandem conjugate dyes.

[3] = U937 cells stained at each dye's MTC, monitored daily for 4 days (approximately 4 doublings)

Structure (SMILES)	Solubility >60% of EtOH Control @ 30 min [1] [%]	Abs Max [2] [nm]	Flourescence Ex Max [2] [nm]	Fluorescence Em Max [2] [nm]	Extinction Coefficient [2]	cell growth compared with PKH26-stained cells (U937 cells; [3])	Maximum Tolerated Concentration (MTC) (U937 cells) [µmol/L]	cell growth compared with PKH26-stained cells (U937 cells; U937 cells, F319B 12.5 micromol/L vs PKH26 12 micromol/L, monitored daily for 6 days)
CCCCCCCCCCCCCCCCCCCCCC[N+]1=C(/C=C/C=C/C=C/C=C2/N(CCCCCCCCCCCCCC)c3ccc4ccccc4c3C2(C)C)C(C)(C)c2c1ccc1ccccc21.[I-] [Compound F277A]	95	788	790	814	205,400 M^−1cm^−1	–	–	–
CCCCCCCCCCCCCCCCN1/C(=C\C=C\c2oc3ccc(C(C)(C)C)cc3[n+]2CCCCCCCCCCCCCCCC)Oc2ccc(C(C)(C)C)cc21.[I-] [Compound F304B]	–	493	494	508	160,000 M^−1cm^−1	–	–	–
CCCCCCCCCCCCCCCCCCCCCC[n+]1c(/C=C2\Sc3ccccc3N2CCCCCCCCCCCCCC)sc2ccccc21.[I-] [Compound F305B]	–	425	420	461	81,200 M^−1cm^−1	comparable growth	20	–
CCCCCCCCCCCCCCCCCCN1/C(=C\C=C\c2oc3ccc(C(C)(C)C)cc3[n+]2CCCCCCCCCCCCCCCCCC)Oc2ccc(C(C)(C)C)cc21.[I-] [Compound F306B]	–	492	493	508	135,000 M^−1cm^−1	–	–	–
CCCCCCCCCCCCCCCCCCCCCC[N+]1=C(/C=C/C=C/C=C2/N(CCCCCCCCCCCCCC)c3ccc([N+](=O)[O-])cc3C2(C)C)C(C)(C)c2ccccc21.[I-] [Compound F308B]	–	649	493	671	134,610 M^−1cm^−1	comparable growth	15	–
CCCCCCCCCCCCCCCCCCCCCC[N+]1=C(/C=C/C=C/C=C/C=C2/N(CCCCCCCCCCCCCC)c3ccc([N+](=O)[O-])cc3C2(C)C)C(C)(C)c2ccccc21.[I-] [Compound F319B]	–	743	–	776	112,500 M^−1cm^−1	–	20	comparable growth
